Data set [1] is described as follows: Solubilization of lumichrome in the FMN formulation. It counts as physicochemical. The note with it: in the current FMN formulation.
Data set [2] can be described thus: Solubility of riboflavin as a function of pH and % FMN. The format is physicochemical. The source says:
The intrinsic solubility of riboflavin is approximately 70 mcg/ml (see plot below with no FMN present). Precipitation is expected to occur if riboflavin reaches a level above this (due to riboflavin in drug substance or due to degradation to riboflavin with time), and precipitation would be unacceptable for patient safety with intravenous use.
Solubility of Riboflavin as a function of pH and % FMN [formula]
At 1% FMN, up to 365 mcg/ml of riboflavin can dissolve.

≈ marks a conversion by molar mass, not a printed value. Like-named read-outs stand apart in the source and are kept apart here. Where only a bound is given, the exact number is not on record here.

Usually solubility stands for the dissolved amount per volume that the medium holds.

As to `Cc1cc2nc3[nH]c(=O)[nH]c(=O)c3nc2cc1C` [lumichrome], the “solubility of lumichrome relative to equilibrium solubility” value in data set [1] is listed as “dissolve at levels above the equilibrium solubility”.

In the case of `Cc1cc2nc3c(=O)[nH]c(=O)nc-3n(C[C@H](O)[C@H](O)[C@H](O)CO)c2cc1C` [riboflavin], the solubility in data set [2] (1% FMN solution, aqueous with cosolvent or surfactant or cyclodextrin, read-out: riboflavin solubility (amount that can dissolve)) is at most 365 µg/mL; in data set [2] (5% FMN solution, aqueous with cosolvent or surfactant or cyclodextrin, 5% FMN, pH 7-8, read-out: riboflavin solubility (amount that can dissolve)), at most 1320 µg/mL; in data set [2] (no FMN present, read-out: intrinsic (equilibrium) solubility of riboflavin), around 70 µg/mL (≈ 186 µM). In data set [2] (no FMN present), the “intrinsic (equilibrium) solubility of riboflavin” value is on record as “approximately 70 mcg/ml”.

The values above are taken from patent US20030162751A1, “Pharmaceutical composition comprising 5' monophosphate ester of riboflavin and solubilized riboflavin” (priority 2001, published 2003).
